Laboratory results taken from the kinase profiling compilation of Christmann-Franck et al. (2016).

Assays:
Test in all cases: radiometric filter-binding kinase assay, Kinase HotSpot
[1] = target: PLK3 (human) (UniProt Q9H4B4); conditions: compound 0.5 µM; ATP 10 µM
[2] = target: PRKG2 (human) (UniProt Q13237); conditions: compound 0.5 µM; ATP 10 µM
[3] = target: FER (human) (UniProt P16591); conditions: compound 0.5 µM; ATP 10 µM
[4] = target: PRKCB2 (human) (UniProt P05771); conditions: compound 0.5 µM; ATP 10 µM
[5] = target: MAPKAPK5 (human) (UniProt Q8IW41); conditions: compound 0.5 µM; ATP 10 µM
[6] = target: AURKB (human) (UniProt Q96GD4); conditions: compound 0.5 µM; ATP 10 µM
[7] = target: PAK6 (human) (UniProt Q9NQU5); conditions: compound 0.5 µM; ATP 10 µM
[8] = target: AKT2 (human) (UniProt P31751); conditions: compound 0.5 µM; ATP 10 µM
[9] = target: DYRK2 (human) (UniProt Q92630); conditions: compound 0.5 µM; ATP 10 µM
[10] = target: MET (human) (UniProt P08581); conditions: compound 0.5 µM; ATP 10 µM
[11] = target: PIM3 (human) (UniProt Q86V86); conditions: compound 0.5 µM; ATP 10 µM
[12] = target: IGF1R (human) (UniProt P08069); conditions: compound 0.5 µM
[13] = target: PRKCI (human) (UniProt P41743); conditions: compound 0.5 µM; ATP 10 µM
[14] = target: KIT (human) (UniProt P10721); conditions: compound 0.5 µM; ATP 10 µM
[15] = target: CSF1R (human) (UniProt P07333); conditions: compound 0.5 µM; ATP 10 µM
[16] = target: JAK3 JH1 JH2 (human) (UniProt P52333); conditions: compound 0.5 µM; ATP 10 µM
[17] = target: NTRK3 (human) (UniProt Q16288); conditions: compound 0.5 µM; ATP 10 µM
[18] = target: MAPK8 (human) (UniProt P45983); conditions: compound 0.5 µM; ATP 10 µM
[19] = target: STK3 (human) (UniProt Q13188); conditions: compound 0.5 µM; ATP 10 µM
[20] = target: MST4 (human) (UniProt Q9P289); conditions: compound 0.5 µM; ATP 10 µM
[21] = target: EPHA4 (human) (UniProt P54764); conditions: compound 0.5 µM; ATP 10 µM
[22] = target: MATK (human) (UniProt P42679); conditions: compound 0.5 µM; ATP 10 µM
[23] = target: CDK7 CCNH MNAT1 (human) (UniProt P50613+P51948+P51946); conditions: compound 0.5 µM
[24] = target: NEK1 (human) (UniProt Q96PY6); conditions: compound 0.5 µM; ATP 10 µM
[25] = target: STK11 (human) (UniProt Q15831); conditions: compound 0.5 µM; ATP 10 µM
[26] = target: AXL (human) (UniProt P30530); conditions: compound 0.5 µM; ATP 10 µM
[27] = target: RPS6KA1 KD1 KD2 (human) (UniProt Q15418); conditions: compound 0.5 µM; ATP 10 µM
[28] = target: EPHB2 (human) (UniProt P29323); conditions: compound 0.5 µM; ATP 10 µM
[29] = target: CSNK1G2 (human) (UniProt P78368); conditions: compound 0.5 µM; ATP 10 µM
[30] = target: PAK7 (human) (UniProt Q9P286); conditions: compound 0.5 µM; ATP 10 µM
[31] = target: PKN2 (human) (UniProt Q16513); conditions: compound 0.5 µM; ATP 10 µM
[32] = target: MAP3K14 (human) (UniProt Q99558); conditions: compound 0.5 µM; ATP 10 µM
[33] = target: MARK4 (human) (UniProt Q96L34); conditions: compound 0.5 µM; ATP 10 µM
[34] = target: STK4 (human) (UniProt Q13043); conditions: compound 0.5 µM; ATP 10 µM
[35] = target: PIM1 (human) (UniProt P11309); conditions: compound 0.5 µM; ATP 10 µM
[36] = target: PDGFRA (human) (UniProt P16234); conditions: compound 0.5 µM; ATP 10 µM
[37] = target: RPS6KA2 KD1 KD2 (human) (UniProt Q15349); conditions: compound 0.5 µM; ATP 10 µM
[38] = target: ITK (human) (UniProt Q08881); conditions: compound 0.5 µM; ATP 10 µM
[39] = target: HIPK3 (human) (UniProt Q9H422); conditions: compound 0.5 µM; ATP 10 µM
[40] = target: PRKCB1 (human) (UniProt P05771); conditions: compound 0.5 µM; ATP 10 µM
[41] = target: CAMK2D (human) (UniProt Q13557); conditions: compound 0.5 µM; ATP 10 µM
[42] = target: ERBB2 (human) (UniProt P04626); conditions: compound 0.5 µM; ATP 10 µM

Sequence of CAMK2D (human) (Q13557 whole entry, looked up): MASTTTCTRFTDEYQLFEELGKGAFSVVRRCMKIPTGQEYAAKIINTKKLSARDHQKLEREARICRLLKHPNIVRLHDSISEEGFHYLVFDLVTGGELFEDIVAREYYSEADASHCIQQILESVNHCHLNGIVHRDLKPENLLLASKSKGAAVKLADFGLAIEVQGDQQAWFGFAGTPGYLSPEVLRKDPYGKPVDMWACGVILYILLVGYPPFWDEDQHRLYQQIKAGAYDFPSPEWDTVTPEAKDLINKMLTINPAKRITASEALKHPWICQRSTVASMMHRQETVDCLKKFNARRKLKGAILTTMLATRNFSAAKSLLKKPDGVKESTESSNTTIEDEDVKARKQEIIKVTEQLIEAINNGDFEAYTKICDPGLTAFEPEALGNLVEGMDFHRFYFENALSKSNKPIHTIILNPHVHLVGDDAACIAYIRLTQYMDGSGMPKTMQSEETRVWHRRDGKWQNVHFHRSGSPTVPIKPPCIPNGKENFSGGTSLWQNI
Sequence of AXL (human) (P30530 whole entry, looked up): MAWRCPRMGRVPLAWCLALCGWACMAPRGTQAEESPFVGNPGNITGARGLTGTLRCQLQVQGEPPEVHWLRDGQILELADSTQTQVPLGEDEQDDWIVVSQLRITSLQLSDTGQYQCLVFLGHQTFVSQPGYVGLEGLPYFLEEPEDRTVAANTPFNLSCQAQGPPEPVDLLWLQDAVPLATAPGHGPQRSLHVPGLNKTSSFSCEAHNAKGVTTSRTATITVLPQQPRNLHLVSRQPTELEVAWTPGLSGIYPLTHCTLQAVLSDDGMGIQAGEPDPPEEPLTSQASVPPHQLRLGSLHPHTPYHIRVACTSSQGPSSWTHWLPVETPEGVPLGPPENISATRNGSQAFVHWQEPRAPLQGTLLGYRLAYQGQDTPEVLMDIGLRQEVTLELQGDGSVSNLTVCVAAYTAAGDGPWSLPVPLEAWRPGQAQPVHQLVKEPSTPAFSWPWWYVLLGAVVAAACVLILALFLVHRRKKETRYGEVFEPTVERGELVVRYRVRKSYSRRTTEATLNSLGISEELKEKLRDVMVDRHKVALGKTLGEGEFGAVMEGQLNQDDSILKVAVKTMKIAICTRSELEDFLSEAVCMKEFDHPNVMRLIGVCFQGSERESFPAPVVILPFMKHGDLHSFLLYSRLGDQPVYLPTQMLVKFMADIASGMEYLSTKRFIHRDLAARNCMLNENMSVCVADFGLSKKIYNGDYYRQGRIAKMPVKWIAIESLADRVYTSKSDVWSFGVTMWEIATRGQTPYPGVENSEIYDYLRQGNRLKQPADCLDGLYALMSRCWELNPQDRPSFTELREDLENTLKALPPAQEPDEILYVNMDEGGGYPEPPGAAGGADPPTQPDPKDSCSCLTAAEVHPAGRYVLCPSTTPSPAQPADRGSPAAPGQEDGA
Sequence of MET (human) (P08581 whole entry, looked up): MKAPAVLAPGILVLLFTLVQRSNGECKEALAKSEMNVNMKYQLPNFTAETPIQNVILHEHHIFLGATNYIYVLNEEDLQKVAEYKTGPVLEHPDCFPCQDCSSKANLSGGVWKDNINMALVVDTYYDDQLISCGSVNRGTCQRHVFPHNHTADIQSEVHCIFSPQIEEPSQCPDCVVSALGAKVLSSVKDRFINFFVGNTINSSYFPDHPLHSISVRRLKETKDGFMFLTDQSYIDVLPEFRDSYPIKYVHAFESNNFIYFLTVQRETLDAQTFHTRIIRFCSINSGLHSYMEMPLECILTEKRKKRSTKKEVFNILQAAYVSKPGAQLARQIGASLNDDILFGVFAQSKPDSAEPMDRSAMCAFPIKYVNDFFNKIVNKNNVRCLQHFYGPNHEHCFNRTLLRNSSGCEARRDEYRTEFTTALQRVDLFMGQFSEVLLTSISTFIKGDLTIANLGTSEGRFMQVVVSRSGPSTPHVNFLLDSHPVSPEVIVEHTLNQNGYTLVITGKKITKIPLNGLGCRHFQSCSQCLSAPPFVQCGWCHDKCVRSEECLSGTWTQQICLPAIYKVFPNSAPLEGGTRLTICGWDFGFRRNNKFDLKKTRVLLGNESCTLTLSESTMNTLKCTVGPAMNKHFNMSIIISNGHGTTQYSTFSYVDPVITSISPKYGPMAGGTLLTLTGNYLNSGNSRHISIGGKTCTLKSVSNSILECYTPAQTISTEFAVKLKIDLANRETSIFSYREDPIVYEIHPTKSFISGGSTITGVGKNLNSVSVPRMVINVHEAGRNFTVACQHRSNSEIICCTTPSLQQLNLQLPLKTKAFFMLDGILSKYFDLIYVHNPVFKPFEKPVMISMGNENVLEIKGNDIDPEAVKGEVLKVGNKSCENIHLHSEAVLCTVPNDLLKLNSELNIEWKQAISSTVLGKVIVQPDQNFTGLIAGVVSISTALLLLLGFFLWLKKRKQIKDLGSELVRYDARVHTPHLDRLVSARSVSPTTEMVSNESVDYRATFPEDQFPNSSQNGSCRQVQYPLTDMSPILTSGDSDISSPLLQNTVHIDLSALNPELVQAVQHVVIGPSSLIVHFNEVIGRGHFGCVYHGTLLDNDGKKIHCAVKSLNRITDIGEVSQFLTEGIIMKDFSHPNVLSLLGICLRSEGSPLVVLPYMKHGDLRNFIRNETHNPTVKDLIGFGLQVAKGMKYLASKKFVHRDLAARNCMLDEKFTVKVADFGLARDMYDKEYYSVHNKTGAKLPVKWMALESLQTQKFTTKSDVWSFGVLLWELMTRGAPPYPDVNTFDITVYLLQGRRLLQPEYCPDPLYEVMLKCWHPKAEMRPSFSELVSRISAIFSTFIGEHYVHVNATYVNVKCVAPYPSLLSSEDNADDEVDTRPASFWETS
Sequence of PKN2 (human) (Q16513 whole entry, looked up): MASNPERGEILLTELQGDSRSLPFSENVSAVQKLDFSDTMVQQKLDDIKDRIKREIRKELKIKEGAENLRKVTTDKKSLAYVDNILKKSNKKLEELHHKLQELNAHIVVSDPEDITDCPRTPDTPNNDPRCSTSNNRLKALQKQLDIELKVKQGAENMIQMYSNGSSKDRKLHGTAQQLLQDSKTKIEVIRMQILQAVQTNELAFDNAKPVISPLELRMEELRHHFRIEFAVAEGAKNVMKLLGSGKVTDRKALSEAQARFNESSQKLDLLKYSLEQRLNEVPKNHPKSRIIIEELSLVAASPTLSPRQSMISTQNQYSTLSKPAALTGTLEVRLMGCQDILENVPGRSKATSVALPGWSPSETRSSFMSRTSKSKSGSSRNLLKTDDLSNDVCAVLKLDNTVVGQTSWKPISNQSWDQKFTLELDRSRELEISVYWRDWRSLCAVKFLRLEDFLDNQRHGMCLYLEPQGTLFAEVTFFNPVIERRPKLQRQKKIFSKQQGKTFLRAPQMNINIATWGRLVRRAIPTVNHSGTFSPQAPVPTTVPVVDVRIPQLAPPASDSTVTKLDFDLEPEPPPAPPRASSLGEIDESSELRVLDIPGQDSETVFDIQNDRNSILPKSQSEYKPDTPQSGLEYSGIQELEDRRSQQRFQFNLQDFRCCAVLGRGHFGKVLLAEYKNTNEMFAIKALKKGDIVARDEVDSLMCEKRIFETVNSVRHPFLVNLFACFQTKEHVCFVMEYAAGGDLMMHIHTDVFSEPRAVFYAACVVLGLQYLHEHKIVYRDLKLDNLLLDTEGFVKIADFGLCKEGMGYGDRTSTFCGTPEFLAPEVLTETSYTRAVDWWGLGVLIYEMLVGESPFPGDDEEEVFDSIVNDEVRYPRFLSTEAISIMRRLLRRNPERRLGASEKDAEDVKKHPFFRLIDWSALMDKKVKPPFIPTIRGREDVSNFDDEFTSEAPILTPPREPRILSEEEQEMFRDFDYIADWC
Sequence of DYRK2 (human) (Q92630 whole entry, looked up): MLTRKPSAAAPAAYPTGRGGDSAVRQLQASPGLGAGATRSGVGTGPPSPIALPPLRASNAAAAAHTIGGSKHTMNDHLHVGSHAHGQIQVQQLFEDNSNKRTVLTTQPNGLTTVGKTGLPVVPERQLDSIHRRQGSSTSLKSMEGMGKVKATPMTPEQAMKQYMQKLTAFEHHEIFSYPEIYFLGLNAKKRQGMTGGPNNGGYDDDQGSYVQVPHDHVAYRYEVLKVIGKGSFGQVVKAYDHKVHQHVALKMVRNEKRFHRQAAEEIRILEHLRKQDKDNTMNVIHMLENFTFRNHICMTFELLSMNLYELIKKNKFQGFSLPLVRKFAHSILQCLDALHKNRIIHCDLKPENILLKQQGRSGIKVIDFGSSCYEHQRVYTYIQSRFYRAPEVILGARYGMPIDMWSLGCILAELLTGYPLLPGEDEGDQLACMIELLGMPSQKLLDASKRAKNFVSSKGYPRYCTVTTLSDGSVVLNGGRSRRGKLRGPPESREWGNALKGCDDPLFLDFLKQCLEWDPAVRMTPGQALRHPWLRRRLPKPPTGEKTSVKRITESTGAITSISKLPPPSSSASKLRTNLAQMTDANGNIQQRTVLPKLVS
Sequence of PRKCI (human) (P41743 whole entry, looked up): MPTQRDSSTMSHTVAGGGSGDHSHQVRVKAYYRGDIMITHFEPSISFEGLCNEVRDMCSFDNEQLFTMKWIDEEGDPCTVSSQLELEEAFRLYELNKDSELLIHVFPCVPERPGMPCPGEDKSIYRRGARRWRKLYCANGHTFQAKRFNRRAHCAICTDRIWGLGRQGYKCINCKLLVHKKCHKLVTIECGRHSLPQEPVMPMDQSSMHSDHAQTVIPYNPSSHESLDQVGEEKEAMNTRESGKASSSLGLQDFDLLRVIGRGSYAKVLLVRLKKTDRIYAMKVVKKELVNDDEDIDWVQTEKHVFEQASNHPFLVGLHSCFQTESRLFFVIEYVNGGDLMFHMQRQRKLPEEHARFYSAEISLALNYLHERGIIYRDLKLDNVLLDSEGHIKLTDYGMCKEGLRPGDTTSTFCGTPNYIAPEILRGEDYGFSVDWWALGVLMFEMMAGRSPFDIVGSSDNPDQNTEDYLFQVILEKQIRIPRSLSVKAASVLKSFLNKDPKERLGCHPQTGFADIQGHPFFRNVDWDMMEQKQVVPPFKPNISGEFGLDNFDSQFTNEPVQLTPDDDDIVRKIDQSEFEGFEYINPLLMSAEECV

## COc1cc2ncnc(Nc3ccc(O)c(Br)c3)c2cc1OC
[1]
  residual activity: 95.2%
[2]
  residual activity: 84.1%
[3]
  residual activity: 85.2%
[4]
  residual activity: 98.7%
[5]
  residual activity: 98.7%
[6]
  residual activity: 63.5%
[7]
  residual activity: 92.8%
[8]
  residual activity: 98.7%
[9]
  residual activity: 60%
[10]
  residual activity: 96.4%
[11]
  residual activity: 73.3%
[12]; ATP 10 µM
  residual activity: 104%
[13]
  residual activity: 94%
[14]
  residual activity: 97.3%
[15]
  residual activity: 95.3%
[16]
  residual activity: 100%
[17]
  residual activity: 83.4%
[18]
  residual activity: 101%
[19]
  residual activity: 89.6%
[20]
  residual activity: 90.2%
[21]
  residual activity: 83.7%
[22]
  residual activity: 98%
[23]; ATP 10 µM
  residual activity: 97%
[24]
  residual activity: 90.5%
[25]
  residual activity: 103%
[26]
  residual activity: 89.4%
[27]
  residual activity: 78.2%
[28]
  residual activity: 66.1%
[29]
  residual activity: 96.4%
[30]
  residual activity: 97.7%
[31]
  residual activity: 97.2%
[32]
  residual activity: 82.6%
[33]
  residual activity: 92.4%
[34]
  residual activity: 90%
[35]
  residual activity: 75.5%
[36]
  residual activity: 88.9%
[37]
  residual activity: 63.6%
[38]
  residual activity: 92.8%
[39]
  residual activity: 67.7%
[40]
  residual activity: 96.6%
[41]
  residual activity: 95.7%
[42]
  residual activity: 33.1%

## Nc1ncnc2c1cnn2-c1ccccc1
[1]
  residual activity: 94.6%
[2]
  residual activity: 99.2%
[3]
  residual activity: 99%
[4]
  residual activity: 96.5%
[5]
  residual activity: 87.1%
[6]
  residual activity: 99.2%
[7]
  residual activity: 100%
[8]
  residual activity: 102%
[9]
  residual activity: 95.6%
[10]
  residual activity: 97.1%
[11]
  residual activity: 91.4%
[12]; ATP 10 µM
  residual activity: 96.4%
[13]
  residual activity: 97.3%
[14]
  residual activity: 89.5%
[15]
  residual activity: 105%
[16]
  residual activity: 97.4%
[17]
  residual activity: 93.6%
[18]
  residual activity: 87.1%
[19]
  residual activity: 92.3%
[20]
  residual activity: 82.2%
[21]
  residual activity: 96.2%
[22]
  residual activity: 89.9%
[23]; ATP 10 µM
  residual activity: 102%
[24]
  residual activity: 62.4%
[25]
  residual activity: 93.9%
[26]
  residual activity: 110%
[27]
  residual activity: 79.5%
[28]
  residual activity: 96.2%
[29]
  residual activity: 95.1%
[30]
  residual activity: 97%
[31]
  residual activity: 125%
[32]
  residual activity: 120%
[33]
  residual activity: 89.7%
[34]
  residual activity: 96.8%
[35]
  residual activity: 99.4%
[36]
  residual activity: 103%
[37]
  residual activity: 92.5%
[38]
  residual activity: 92.7%
[39]
  residual activity: 97.6%
[40]
  residual activity: 95.2%
[41]
  residual activity: 94.7%
[42]
  residual activity: 107%

## O=c1[nH]c2ccccc2n1C1CCN(Cc2ccc(-c3nc4cc5[nH]cnc5cc4nc3-c3ccccc3)cc2)CC1
[1]
  residual activity: 99.1%
[2]
  residual activity: 96.8%
[3]
  residual activity: 99.6%
[4]
  residual activity: 105%
[5]
  residual activity: 97.4%
[6]
  residual activity: 98.7%
[7]
  residual activity: 109%
[8]
  residual activity: 96.8%
[9]
  residual activity: 107%
[10]
  residual activity: 102%
[11]
  residual activity: 106%
[12]
  residual activity: 91.2%
[13]
  residual activity: 97%
[14]
  residual activity: 91.7%
[15]
  residual activity: 97%
[16]
  residual activity: 100%
[17]
  residual activity: 116%
[18]
  residual activity: 89.6%
[19]
  residual activity: 103%
[20]
  residual activity: 102%
[21]
  residual activity: 97.1%
[22]
  residual activity: 102%
[23]
  residual activity: 99.1%
[24]
  residual activity: 101%
[25]
  residual activity: 95.6%
[26]
  residual activity: 105%
[27]
  residual activity: 101%
[28]
  residual activity: 108%
[29]
  residual activity: 101%
[30]
  residual activity: 110%
[31]
  residual activity: 73.2%
[32]
  residual activity: 96.8%
[33]
  residual activity: 102%
[34]
  residual activity: 95.2%
[35]
  residual activity: 106%
[36]
  residual activity: 98.2%
[37]
  residual activity: 101%
[38]
  residual activity: 99.8%
[39]
  residual activity: 102%
[40]
  residual activity: 108%
[41]
  residual activity: 97.7%
[42]
  residual activity: 88.9%

## O=C1NC(=O)c2cc(Nc3ccc(F)cc3)c(Nc3ccc(F)cc3)cc21
[1]
  residual activity: 98%
[2]
  residual activity: 83.3%
[3]
  residual activity: 96.4%
[4]
  residual activity: 15.5%
[5]
  residual activity: 93.4%
[6]
  residual activity: 99.7%
[7]
  residual activity: 106%
[8]
  residual activity: 95.1%
[9]
  residual activity: 89.1%
[10]
  residual activity: 96.7%
[11]
  residual activity: 105%
[12]; ATP 10 µM
  residual activity: 102%
[13]
  residual activity: 89%
[14]
  residual activity: 97.2%
[15]
  residual activity: 104%
[16]
  residual activity: 93.9%
[17]
  residual activity: 95.6%
[18]
  residual activity: 91.4%
[19]
  residual activity: 90.7%
[20]
  residual activity: 99%
[21]
  residual activity: 94%
[22]
  residual activity: 93.5%
[23]; ATP 10 µM
  residual activity: 100%
[24]
  residual activity: 88%
[25]
  residual activity: 98.2%
[26]
  residual activity: 104%
[27]
  residual activity: 97.7%
[28]
  residual activity: 89.3%
[29]
  residual activity: 97.5%
[30]
  residual activity: 96.4%
[31]
  residual activity: 102%
[32]
  residual activity: 117%
[33]
  residual activity: 98.2%
[34]
  residual activity: 101%
[35]
  residual activity: 81.8%
[36]
  residual activity: 101%
[37]
  residual activity: 98.7%
[38]
  residual activity: 87.3%
[39]
  residual activity: 95.3%
[40]
  residual activity: 28.2%
[41]
  residual activity: 97.9%
[42]
  residual activity: 107%
